The values that follow come from US20090105266A1, “Organic compounds” (priority 2007, published 2009).

SMILES strings stand for the structures.

For this assay, the target named is T1, mGluR5 (Homo sapiens, UniProt P41594).
T1 construct: expressed in transfected cells
T1 sequence (P41594 21-1180 isoform P41594-2 limits assumed): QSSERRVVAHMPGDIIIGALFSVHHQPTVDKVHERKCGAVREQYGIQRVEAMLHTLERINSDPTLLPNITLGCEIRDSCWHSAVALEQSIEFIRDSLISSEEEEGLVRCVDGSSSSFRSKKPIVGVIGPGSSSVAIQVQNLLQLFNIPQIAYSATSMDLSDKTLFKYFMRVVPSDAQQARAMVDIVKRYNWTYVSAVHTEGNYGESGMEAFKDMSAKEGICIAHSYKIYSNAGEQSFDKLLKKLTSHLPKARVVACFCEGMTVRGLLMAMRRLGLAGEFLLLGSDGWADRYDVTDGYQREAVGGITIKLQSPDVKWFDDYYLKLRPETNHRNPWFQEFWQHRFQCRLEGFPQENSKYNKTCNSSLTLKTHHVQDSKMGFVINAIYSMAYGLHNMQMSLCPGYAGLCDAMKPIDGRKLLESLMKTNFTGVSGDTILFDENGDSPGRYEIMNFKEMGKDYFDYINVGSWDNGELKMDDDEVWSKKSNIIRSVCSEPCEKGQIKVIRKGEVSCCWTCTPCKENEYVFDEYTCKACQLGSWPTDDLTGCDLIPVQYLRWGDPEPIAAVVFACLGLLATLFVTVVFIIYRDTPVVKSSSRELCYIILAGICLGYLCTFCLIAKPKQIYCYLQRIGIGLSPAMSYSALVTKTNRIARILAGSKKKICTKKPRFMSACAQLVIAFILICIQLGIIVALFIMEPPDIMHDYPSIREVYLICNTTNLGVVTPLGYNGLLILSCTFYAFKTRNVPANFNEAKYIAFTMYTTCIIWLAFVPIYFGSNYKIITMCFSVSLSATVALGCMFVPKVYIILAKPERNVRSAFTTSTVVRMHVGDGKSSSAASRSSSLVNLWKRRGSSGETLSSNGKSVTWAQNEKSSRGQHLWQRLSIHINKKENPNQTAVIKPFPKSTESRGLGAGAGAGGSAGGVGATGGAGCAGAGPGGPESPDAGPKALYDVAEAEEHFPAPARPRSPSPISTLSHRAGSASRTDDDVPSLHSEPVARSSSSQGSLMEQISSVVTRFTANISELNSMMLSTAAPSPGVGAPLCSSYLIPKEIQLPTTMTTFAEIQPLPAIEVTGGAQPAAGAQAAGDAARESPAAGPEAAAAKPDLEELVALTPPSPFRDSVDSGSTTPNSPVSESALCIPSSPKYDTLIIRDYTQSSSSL
Briefly: inhibition of the glutamate (agonist) induced elevation of the inositol phosphate turnover. It counts as cell-based. The note with it: inhibition of glutamate induced elevation of inositol phosphate turnover at 0.1 μM. The source says:
This can be determined in vitro for example at recombinant human metabotropic glutamate receptors, especially PLC-coupled subtypes thereof such as mGluR5, using different procedures like, for example, measurement of the inhibition of the agonist induced elevation of intracellular Ca^2+ concentration in accordance with L. P. Daggett et al., Neuropharm. Vol. 34, pages 871-886 (1995), P. J. Flor et al., J. Neurochem. Vol. 67, pages 58-63 (1996) or by determination to what extent the agonist induced elevation of the inositol phosphate turnover is inhibited as described by T. Knoepfel et al., Eur. J. Pharmacol. Vol. 288, pages 389-392 (1994), L. P. Daggett et al., Neuropharm. Vol. 67, pages 58-63 (1996) and references cited therein. Isolation and expression of human mGluR subtypes are described in U.S. Pat. No. 5,521,297. Selected agents of the invention show IC50 values for the inhibition of the agonist (e.g. glutamate or quisqualate) induced elevation of intracellular Ca2+ concentration or the agonist (e.g. glutamate or quisqualate) induced inositol phosphate turnover, measured in recombinant cells expressing hmGluR^5a of about 0.1 nM to about 50 μM.
Activity of compounds of the present invention was examined by determination to what extent the agonist induced elevation of the inositol phosphate turnover is inhibited as described by T. Knoepfel et al., Eur. J. Pharmacol. Vol. 288, pages 389-392 (1994), L. P. Daggett et al., Neuropharm. Vol. 67, pages 58-63 (1996) and references cited therein.
The table below represents percentages of inhibition of the glutamate induced elevation of the inositol phosphate turnover at a concentration of 0.1 μM.
The inhibition is the relative decrease from the control value, in per cent. For `CCCn1c(-c2cnc(Nc3ccc(C(=O)OC)nc3)c(Cl)c2)nc2cccc(Cl)c21` [Example 75d, 5-[3-Chloro-5-(7-chloro-1-propyl-1H-benzoimidazol-2-yl)-pyridin-2-ylamino]-pyridine-2-carboxylic acid methyl ester], the inhibition at 0.1 µM stood at 100%.

With `CCCn1c(-c2ccc(Nc3ccc(OC)cc3)nc2)nc2ccc(F)cc21` [Example 107, [5-(6-Fluoro-1-propyl-1H-benzoimidazol-2-yl)-pyridin-2-yl]-(4-methoxy-phenyl)-amine], the inhibition at 0.1 µM worked out at 64%.

With `CCCn1c(-c2cnc(Nc3ccc(C)nc3)c(Cl)c2)nc2cc(I)cc(Cl)c21` [Example 34b, [3-Chloro-5-(7-chloro-5-iodo-1-propyl-1H-benzoimidazol-2-yl)-pyridin-2-yl]-(6-methyl-pyridin-3-yl)-amine], the inhibition at 0.1 µM came out at 97%.

On to `CCCn1c(-c2cnc(Nc3cnccn3)c(Cl)c2)nc2cccc(Cl)c21` [Example 72, [3-Chloro-5-(7-chloro-1-propyl-1H-benzoimidazol-2-yl)-pyridin-2-yl]-pyrazin-2-yl-amine], for which the inhibition at 0.1 µM turned out to be 96%.

Take `CCCn1c(-c2ccc(Nc3ccc(Cl)cc3)c(Cl)c2)nc2cccc(Cl)c21` [Example 96, [2-Chloro-4-(7-chloro-1-propyl-1H-benzoimidazol-2-yl)-phenyl]-(4-chloro-phenyl)-amine]: the inhibition at 0.1 µM is 85%.

As to `CC(C)Cn1c(-c2ccc(Nc3ccc(Cl)cc3)nc2)nc2cccc(Cl)c21` [Example 109, [5-(7-Chloro-1-isobutyl-1H-benzoimidazol-2-yl)-pyridin-2-yl]-(4-chloro-phenyl)-amine], the inhibition at 0.1 µM was found to be 91%.

Consider `CCCn1c(-c2ccc(Nc3ccc(C)nc3)cc2)nc2ccc(F)cc21` [Example 79, [4-(6-Fluoro-1-propyl-1H-benzoimidazol-2-yl)-phenyl]-(6-methyl-pyridin-3-yl)-amine], for which the inhibition at 0.1 µM came to 65%.

For the compound `CCCn1c(-c2ccc(Nc3ccc(C)cc3)nc2)nc2ccc(F)cc21` [Example 106, [5-(6-Fluoro-1-propyl-1H-benzoimidazol-2-yl)-pyridin-2-yl]-p-tolyl-amine], the inhibition at 0.1 µM was 70%.

As for `CCCn1c(-c2cnc(Nc3ccc(C)nc3)c(Cl)c2)nc2cccc(C)c21` [Example 24, [3-Chloro-5-(7-methyl-1-propyl-1H-benzoimidazol-2-yl)-pyridin-2-yl]-(6-methyl-pyridin-3-yl)-amine], the inhibition at 0.1 µM stood at 101%.

Regarding `CCCn1c(-c2cnc(Nc3ccc(C)nc3)c(Cl)c2)nc2c(C)ccc(C)c21` [Example 29, [3-Chloro-5-(4,7-dimethyl-1-propyl-1H-benzoimidazol-2-yl)-pyridin-2-yl]-(6-methyl-pyridin-3-yl)-amine], the inhibition at 0.1 µM stood at 99%.

As to `CCCn1c(-c2cnc(Nc3ccc(OC)cc3)nc2)nc2cccc(Cl)c21` [Example 90, [5-(7-Chloro-1-propyl-1H-benzoimidazol-2-yl)-pyrimidin-2-yl]-(4-methoxy-phenyl)-amine], the inhibition at 0.1 µM came out at 102%.

For the compound `CCCn1c(-c2cnc(Nc3ccc(NC(C)=O)nc3)c(Cl)c2)nc2cccc(Cl)c21` [Example 75c, N-{5-[3-Chloro-5-(7-chloro-1-propyl-1H-benzoimidazol-2-yl)-pyridin-2-ylamino]-pyridin-2-yl}-acetamide], the inhibition at 0.1 µM worked out at 100%.

Take `CCCn1c(-c2ccc(Nc3ccc(C)nc3)cc2)nc2cccc(Cl)c21` [Example 78, [4-(7-Chloro-1-propyl-1H-benzoimidazol-2-yl)-phenyl]-(6-methyl-pyridin-3-yl)-amine]: the inhibition at 0.1 µM was found to be 99%.

On to `CCCn1c(-c2cnc(Nc3ccc(C)nc3)c(Cl)c2)nc2cccc(Cl)c21` [Example 48, [3-Chloro-5-(7-chloro-1-propyl-1H-benzoimidazol-2-yl)-pyridin-2-yl]-(6-methyl-pyridin-3-yl)-amine], for which the inhibition at 0.1 µM was determined as 101%.

Take `CCCn1c(-c2cnc(Nc3ccc(C#N)nc3)c(Cl)c2)nc2cccc(Cl)c21` [Example 75b, 5-[3-Chloro-5-(7-chloro-1-propyl-1H-benzoimidazol-2-yl)-pyridin-2-ylamino]-pyridine-2-carbonitrile]: the inhibition at 0.1 µM stood at 99%.

For the compound `CCCn1c(-c2cnc(Nc3ccc(C)nc3)c(Cl)c2)nc2cc(Cl)ccc21` [Example 45, [3-Chloro-5-(5-chloro-1-propyl-1H-benzoimidazol-2-yl)-pyridin-2-yl]-(6-methyl-pyridin-3-yl)-amine], the inhibition at 0.1 µM amounted to 91%.

Take `CCCn1c(-c2ccc(Nc3ccc(C)nc3)nc2)nc2ccccc21` [Example 102, (6-Methyl-pyridin-3-yl)-[5-(1-propyl-1H-benzoimidazol-2-yl)-pyridin-2-yl]-amine]: the inhibition at 0.1 µM came out at 90%.
